According to PubChem BioAssay (NCI):
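Following 48 hours of exposure in 96-well plates, responses at five concentrations were used to interpolate endpoints linearly. TGI marks complete inhibition of growth.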

Assays:
Experiment in all cases: NCI tumour cell line growth inhibition, 48 h
[1] = system: 786-0 renal
[2] = system: HOP-92 NSCLC
[3] = system: MOLT-4 leukemia
[4] = system: NCI-H226 lung
[5] = system: HCT-15 colon
[6] = system: HCC-2998 colon
[7] = system: HL-60(TB) leukemia
[8] = system: MALME-3M melanoma
[9] = system: HOP-62 NSCLC
[10] = system: LOX IMVI melanoma
[11] = system: SNB-75 CNS
[12] = system: SK-MEL-28 melanoma
[13] = system: NCI-H460 lung
[14] = system: SK-MEL-2 melanoma

Structure (SMILES)	TGI [1]	TGI [2]	TGI [3]	TGI [4]	TGI [5]	TGI [6]	TGI [7]	TGI [8]	TGI [9]	TGI [10]	TGI [11]	TGI [12]	TGI [13]	TGI [14]
O=c1c2c3c(sc2nc2n1N=C(c1ccc(Cl)cc1)CS2)CCCC3	> 100 µM	> 100 µM	> 100 µM	> 100 µM	> 100 µM	> 100 µM	> 100 µM	> 100 µM	> 100 µM	> 100 µM	> 100 µM	> 100 µM	> 100 µM	–
CC(=O)OCc1cncn1S(=O)(=O)c1ccc(C)cc1	> 100 µM	> 100 µM	> 100 µM	> 100 µM	> 100 µM	> 100 µM	50.2 µM	> 100 µM	> 100 µM	> 100 µM	> 100 µM	> 100 µM	> 65.5 µM	> 100 µM
O=[N+]([O-])c1ccc(N/N=C/CC(O)(C(F)(F)F)C(F)(F)F)c([N+](=O)[O-])c1	> 10 µM	6.59 µM	> 10 µM	> 10 µM	> 10 µM	> 10 µM	> 10 µM	> 10 µM	> 10 µM	> 10 µM	> 10 µM	> 10 µM	8.35 µM	6.64 µM
COC(=O)C1=C(OC(=O)/C=C/c2ccccc2)C(C(=O)OC)[C@@]2(O)[C@@H](C(=O)OC)[C@H](C)C[C@@H]1[C@@H]2C(=O)OC (stereo partly specified)	50 µM	48 µM	> 100 µM	> 100 µM	37.6 µM	48.7 µM	> 100 µM	65.5 µM	48.2 µM	93.2 µM	73.1 µM	> 100 µM	52.7 µM	91.1 µM
CC1=NN(C(=O)CC(=O)Nc2ccccc2Cl)C(=O)C1N=Nc1ccc(S(=O)(=O)c2ccc(N=NC3C(=O)N(C(=O)CC(=O)Nc4ccccc4Cl)N=C3C)cc2)cc1 (stereo unspecified)	> 100 µM	> 100 µM	> 100 µM	> 100 µM	> 100 µM	> 100 µM	> 100 µM	> 100 µM	> 100 µM	> 100 µM	> 100 µM	> 100 µM	> 100 µM	> 100 µM
CCCC(O)c1cn(C(NC(=O)c2ccccc2)P(=O)(OCC)OCC)nn1 (stereo unspecified)	> 100 µM	> 100 µM	> 100 µM	> 100 µM	> 100 µM	> 100 µM	> 100 µM	> 100 µM	> 100 µM	> 100 µM	> 100 µM	> 100 µM	> 100 µM	> 100 µM
O=C1C=C2SC3C[C@@]24CC1[N+]1=c2c4c(c(O)c4c2=C(C=N4)CC1)N3	–	> 100 µM	4.11 µM	4.76 µM	13.7 µM	6.78 µM	3.78 µM	3.3 µM	32.6 µM	6.65 µM	12.2 µM	4.09 µM	9.03 µM	3.35 µM
C(/Cc1ccc2c(c1)OCO2)=N\NC1=NCCN1	> 100 µM	> 100 µM	> 100 µM	> 100 µM	> 100 µM	> 100 µM	> 100 µM	> 100 µM	> 100 µM	> 100 µM	> 100 µM	> 100 µM	> 100 µM	> 100 µM
C(=N\Nc1ccc(-c2nc3ccccc3[nH]2)cc1)/c1c(-c2ccc(Cc3ccccc3)cc2)[nH]c2ccccc12	> 42.6 µM	25.7 µM	> 37.3 µM	> 100 µM	> 100 µM	30.9 µM	> 63.5 µM	23.2 µM	> 100 µM	23 µM	41.2 µM	> 100 µM	> 100 µM	20 µM
CCOC(=O)C[n+]1cccc(C2(c3cc4ccccc4[nH]3)OCCO2)c1	> 100 µM	> 100 µM	> 100 µM	> 100 µM	> 100 µM	> 100 µM	> 100 µM	> 100 µM	> 100 µM	> 100 µM	> 100 µM	> 100 µM	> 100 µM	> 100 µM
CCOC(=O)C(CC(C)C)NC(=O)CSc1nnc(COc2ccc(Cl)cc2)n1-c1ccccc1 (stereo unspecified)	28.6 µM	39.8 µM	> 100 µM	48.5 µM	37.1 µM	27.4 µM	43.4 µM	37.8 µM	36.8 µM	28.9 µM	32 µM	33.1 µM	29.3 µM	30 µM
CSc1c(C#N)c(N)nc2c(N=Nc3ccc(Br)cc3)c(N)nn12	11.3 µM	18.9 µM	27.3 µM	39.5 µM	12 µM	26 µM	9.1 µM	24 µM	32.3 µM	3.58 µM	28.8 µM	30.8 µM	> 49.1 µM	17.2 µM
C=CC(OC(C)=O)c1ccc(OC(=O)C(C)C)c(OC)c1 (stereo unspecified)	4.25 µM	11.5 µM	36.2 µM	39.8 µM	20 µM	29.5 µM	> 23.6 µM	4.43 µM	28.4 µM	5.18 µM	13 µM	28.8 µM	> 57.6 µM	15.8 µM
CSCCCS/C1=C/CCCCCCCCCC1	> 100 µM	> 100 µM	> 100 µM	> 100 µM	> 100 µM	> 100 µM	> 100 µM	> 100 µM	> 100 µM	> 100 µM	> 100 µM	> 100 µM	> 100 µM	> 100 µM
CCCC(C)n1c(C)nc2c1C(=O)c1ccccc1C2=O (stereo unspecified)	> 100 µM	66.8 µM	> 100 µM	> 100 µM	> 100 µM	> 100 µM	> 100 µM	67 µM	> 100 µM	23.6 µM	> 100 µM	> 100 µM	16.8 µM	47.1 µM
CSc1cc(-c2ccccn2)nc(-c2ccccn2)c1	11.4 µM	2.91 µM	> 100 µM	0.955 µM	4.11 µM	12.9 µM	0.89 µM	9.18 µM	4.49 µM	1.52 µM	13.6 µM	14.8 µM	1.88 µM	14.9 µM

Structure (SMILES)	TGI [1]	TGI [2]	TGI [3]	TGI [4]	TGI [5]	TGI [6]	TGI [7]	TGI [8]	TGI [9]	TGI [10]	TGI [11]	TGI [12]	TGI [13]	TGI [14]
O=c1cc(NNc2cccc(F)c2)[nH]c(=O)[nH]1	30.1 µM	30 µM	84.3 µM	> 100 µM	30.9 µM	> 100 µM	44.6 µM	34.9 µM	> 100 µM	36.9 µM	> 100 µM	> 100 µM	> 100 µM	> 100 µM
CSC1C(=O)Nc2ccc3ccccc3c21 (stereo unspecified)	32.6 µM	40.6 µM	> 100 µM	> 100 µM	38.4 µM	> 100 µM	10.8 µM	> 100 µM	71.8 µM	31 µM	70.5 µM	> 100 µM	> 100 µM	> 100 µM
COP(=O)(OC)C(NC(=O)C(F)(F)F)(c1ccccc1)C(F)(F)F (stereo unspecified)	> 100 µM	> 100 µM	> 100 µM	> 100 µM	> 100 µM	> 100 µM	> 100 µM	> 100 µM	> 100 µM	> 100 µM	> 100 µM	> 100 µM	> 100 µM	> 100 µM
CCCCCc1cc2cc3c(c(O)c2c(=O)[nH]1)C1(CCC3)C(O)=c2c(=O)c3c(=O)cc(OC)c(=O)c=3c(=O)c2=C1O (stereo unspecified)	2.69 µM	1.3 µM	4.01 µM	4.21 µM	2.33 µM	4.42 µM	1.24 µM	2.95 µM	7.67 µM	2.85 µM	3.67 µM	3.68 µM	3.12 µM	3.68 µM
COc1cc2cc(C(=O)N3CC(CCl)c4c3cc(NC(=O)OCc3ccc([N+](=O)[O-])cc3)c3ccccc43)[nH]c2c(OC)c1OC (stereo unspecified)	> 39.3 µM	> 90.5 µM	> 100 µM	> 100 µM	> 100 µM	16.3 µM	> 38.5 µM	> 100 µM	> 100 µM	> 100 µM	67.3 µM	> 100 µM	> 39.1 µM	> 100 µM
COc1ccc(/C=C/C(=O)c2cc(C(C)(C)C)c(O)c(C(C)(C)C)c2)cc1OC	27.4 µM	> 100 µM	> 49.6 µM	43 µM	> 100 µM	7.74 µM	17.6 µM	> 100 µM	> 100 µM	29.3 µM	13.5 µM	> 100 µM	20.2 µM	16.5 µM
O=C1C=CC(=C(c2ccc(O)cc2)c2ccc(O)cc2)C=C1	26.5 µM	9.27 µM	29.7 µM	37.5 µM	28.6 µM	27.6 µM	13.4 µM	24.9 µM	35.2 µM	22.9 µM	10.2 µM	25.3 µM	30.5 µM	17.7 µM
CC(=O)OC(Cc1ccc2ccccc2n1)(C(F)(F)F)C(F)(F)F	6.37 µM	0.933 µM	16 µM	4.77 µM	7.46 µM	7.57 µM	0.352 µM	5.21 µM	27.9 µM	0.409 µM	13.5 µM	4.03 µM	18.5 µM	4.36 µM
CCCCCCCCCCCCc1ccc(S(=O)(=O)O)cc1.[Zn+2]	> 100 µM	> 100 µM	> 100 µM	> 100 µM	> 100 µM	> 100 µM	> 100 µM	> 100 µM	> 100 µM	> 100 µM	> 100 µM	> 100 µM	> 100 µM	–
O=c1oc2ccc([N+](=O)[O-])cc2c(Nc2ccc3c(c2)Sc2ccccc2O3)c1[N+](=O)[O-]	39.9 µM	41.6 µM	–	35.8 µM	35 µM	26.4 µM	46.8 µM	> 100 µM	44.7 µM	36.2 µM	79 µM	69.2 µM	57.8 µM	40.4 µM
CC(=O)c1ccccc1NCC(=O)Nn1cnc2ccc(S(=O)(=O)Nc3ccccc3C(C)=O)cc2c1=O	> 100 µM	> 100 µM	> 100 µM	> 100 µM	> 100 µM	> 100 µM	> 100 µM	> 100 µM	> 100 µM	> 100 µM	> 100 µM	> 100 µM	> 100 µM	> 100 µM
COC12CCCN1c1ccn(Cc3ccccc3)c(=O)c1C2=O (stereo unspecified)	> 100 µM	> 100 µM	> 100 µM	> 100 µM	> 100 µM	> 100 µM	> 100 µM	> 100 µM	–	> 100 µM	> 100 µM	> 100 µM	> 100 µM	> 100 µM
O=[N+]([O-])c1ccccc1S(=O)(=O)c1ccccc1	–	> 100 µM	> 100 µM	> 100 µM	> 100 µM	> 100 µM	> 100 µM	> 100 µM	> 100 µM	> 100 µM	> 100 µM	> 100 µM	> 100 µM	> 100 µM
C=C1c2nc3ccccc3n2C=C(c2ccc(C)cc2)N1c1ccc(C)cc1	> 100 µM	> 100 µM	> 100 µM	> 44.4 µM	> 80.6 µM	> 72.9 µM	64.4 µM	> 100 µM	> 100 µM	> 100 µM	> 100 µM	> 100 µM	> 100 µM	> 100 µM
C=CCc1cc(-c2cc(CC=C)c(O)c(CN(CC)CC)c2)cc(CN(CC)CC)c1O	> 100 µM	96.9 µM	> 100 µM	98.7 µM	51.7 µM	> 100 µM	> 86.3 µM	32.8 µM	76.8 µM	31.7 µM	> 100 µM	80.6 µM	64.9 µM	60.3 µM
C=CCN1C(=O)/C(=C/c2ccco2)N=C1SC1OC(COC(C)=O)C(OC(C)=O)C(OC(C)=O)C1OC(C)=O (stereo unspecified)	–	> 100 µM	> 100 µM	> 100 µM	> 100 µM	> 100 µM	53.4 µM	> 100 µM	> 100 µM	> 100 µM	> 100 µM	> 100 µM	> 100 µM	> 100 µM
